In patent publication US5545639A, “Method of inhibiting transformed cells” (The United States of America as represented by the …, priority 1994, dated 1996):
Read-outs that look alike come from different tables or passages of the source.

What was measured:
[1] = system: mouse L1210 leukemia cells; assay: Example 1: growth of mouse L1210 leukemia cells with 2,9-DMP, with/without copper and BCS; type: cell-based; settings: for activity at 0.4 µM: at concentrations above about 0.4 μM
Method: The phenanthroline derivative 2,9-DMP was added to a culture of mouse L1210 leukemia cells alone (.smallcircle.), with copper sulfate (.circle-solid.), and with copper sulfate and bathocuproine sulfonate (.quadrature.). The concentrations of copper sulfate and bathocuproine sulfonate used in these experiments were both 25 μM. Methods used to grow the cells and to administer the test compounds were standard methods, well known to ordinary practitioners. The growth of the cells as a percent of control was determined, and the results were plotted in the graph of FIG. 1.

[2] = system: P388 murine lymphocytic leukemia cells; settings: mice inoculated with P388 cells; 2,9-DMP treatment with copper; cited from earlier work
[3] = system: L1210 cells; settings: 2,9-DMP with copper; cited from earlier work
[4] = system: mouse L1210 cells; settings: coordinated copper complex, tissue culture; cited from earlier work
[5] = system: mouse L1210 leukemia cells; assay: Example 2: growth of mouse L1210 leukemia cells with monohalomethyl phenanthrolines, with/without copper and BCS; type: cell-based
Method: The aforementioned monohalomethyl compounds were prepared and characterized as described by Newkome et al., J. Org. Chem., 54, 1766-1769 (1989). The compounds were then added to different cultures of mouse L1210 leukemia cells alone (.smallcircle.), with copper sulfate (.quadrature.), with BCS (.circle-solid.), or with BCS and copper sulfate (.box-solid.). The concentrations of copper and BCS used in these experiments were 10 μM and 100 μM, respectively. Methods used to grow the cells and to administer the test compounds were standard methods, well known to ordinary practitioners, and were similar to those used in Example 1. The growth of the cells as a percent of controls were determined, and the results were plotted in the graph of FIG. 2.

[6] = system: L1210 mouse cells; assay: Example 3: growth of L1210 mouse cells with bis(halomethyl)phenanthrolines plus copper, with or without BCS; type: cell-based; settings: copper 10 μM, BCS 100 μM
Method: Bis(halomethyl)phenanthroline compounds were synthesized according to the method of Newkome et al., J. Org. Chem., 48, 5112-5114 (1983). Such compounds, namely, 2,9-bis(bromomethyl)phenanthroline and 2,9-bis(chloromethyl)phenanthroline, were added in the presence of copper, but with or without BCS (the copper chelator shown in Examples 1 and 2 to reduce inhibitory activity), to the culture media of L1210 mouse cells, using the same methods of Examples 1 and 2. The concentrations of copper and BCS used in these experiments were 10 μM and 100 μM, respectively. The growth of the cells as a percent of control were determined, and the results plotted in the graph of FIG. 3, wherein open squares (.quadrature.) represent the compound plus copper chelate and solid squares (.box-solid.) represent the compound together with both copper and BCS addition to the culture medium.

## Cc1ccc2ccc3ccc(C)nc3c2n1 [2,9-DMP, 2,9-dimethyl-1,10-phenanthroline]
[1]; Mus musculus, L1210, 2,9-DMP alone, read-out: cell growth as percent of control
  activity at 0.4 µM: < 20%
[1]; Mus musculus, L1210, with copper ion (copper sulfate 25 μM), at concentrations above about 0.1 μM, read-out: cell growth as percent of control
  activity at 0.1 µM: < 20%
[1]; Mus musculus, L1210, with copper ion (copper sulfate 25 μM), read-out: cell growth as percent of control
  activity at 0.4 µM: < 10%
[1]; copper chelated
  concentration inhibiting to the same level (20% of control) relative to copper-chelated monobrominated phenanthroline: less than one-tenth of that concentration
[2]
  increase in life span: 45%
[3]
  inhibitory response of L1210 tumor in implanted animals: evident, although weak
[4]
  concentration effective for killing of L1210 cells: nanomolar concentrations

## Cc1ccc2ccc3ccc(CBr)nc3c2n1 [2-BM-9-MP, 2-bromomethyl-9-methyl-1,10-phenanthroline]
[5]
  inhibitory activity compared with unhalogenated parent compound of Example 1: less than that of the unhalogenated parent compound

## BrCc1ccc2ccc3ccc(CBr)nc3c2n1 [2,9-bis(bromomethyl)-1,10-phenanthroline]
[6]
  difference in inhibitory effect, presence vs absence of available copper (BCS): about 10%

## Cc1ccc2ccc3ccc(CCl)nc3c2n1 [2-CM-9-MP, 2-chloromethyl-9-methyl-1,10-phenanthroline]
[5]
  inhibitory activity compared with unhalogenated parent compound of Example 1: less than that of the unhalogenated parent compound
